Reference: US10047084B2, “Imidazolone derivatives, pharmaceutical compositions and uses thereof” (BEIJING FORELANDPHARMA CO. LTD., priority 2013, dated 2018)

Tests used:
PC-3 = test: CTG cell survival assay, PC-3; format: cell-based; conditions: Homo sapiens, PC-3 cells
Method in brief: (§1)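 Cells were exposed to compounds in a 3-fold dilution series, with a top final concentration of 10 uM in 0.1% DMSO. Viable cells were quantified by CellTiter-Glo ATP luminescence.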

mTOR kinase = mTOR kinase (Homo sapiens (Human), UniProt P42345); test: mTOR kinase activity assay (TR-FRET, GFP-4EBP1 substrate); format: biochemical; conditions: read-out: Enzyme (mTOR) IC50
Sequence of mTOR kinase (P42345 1360-2549): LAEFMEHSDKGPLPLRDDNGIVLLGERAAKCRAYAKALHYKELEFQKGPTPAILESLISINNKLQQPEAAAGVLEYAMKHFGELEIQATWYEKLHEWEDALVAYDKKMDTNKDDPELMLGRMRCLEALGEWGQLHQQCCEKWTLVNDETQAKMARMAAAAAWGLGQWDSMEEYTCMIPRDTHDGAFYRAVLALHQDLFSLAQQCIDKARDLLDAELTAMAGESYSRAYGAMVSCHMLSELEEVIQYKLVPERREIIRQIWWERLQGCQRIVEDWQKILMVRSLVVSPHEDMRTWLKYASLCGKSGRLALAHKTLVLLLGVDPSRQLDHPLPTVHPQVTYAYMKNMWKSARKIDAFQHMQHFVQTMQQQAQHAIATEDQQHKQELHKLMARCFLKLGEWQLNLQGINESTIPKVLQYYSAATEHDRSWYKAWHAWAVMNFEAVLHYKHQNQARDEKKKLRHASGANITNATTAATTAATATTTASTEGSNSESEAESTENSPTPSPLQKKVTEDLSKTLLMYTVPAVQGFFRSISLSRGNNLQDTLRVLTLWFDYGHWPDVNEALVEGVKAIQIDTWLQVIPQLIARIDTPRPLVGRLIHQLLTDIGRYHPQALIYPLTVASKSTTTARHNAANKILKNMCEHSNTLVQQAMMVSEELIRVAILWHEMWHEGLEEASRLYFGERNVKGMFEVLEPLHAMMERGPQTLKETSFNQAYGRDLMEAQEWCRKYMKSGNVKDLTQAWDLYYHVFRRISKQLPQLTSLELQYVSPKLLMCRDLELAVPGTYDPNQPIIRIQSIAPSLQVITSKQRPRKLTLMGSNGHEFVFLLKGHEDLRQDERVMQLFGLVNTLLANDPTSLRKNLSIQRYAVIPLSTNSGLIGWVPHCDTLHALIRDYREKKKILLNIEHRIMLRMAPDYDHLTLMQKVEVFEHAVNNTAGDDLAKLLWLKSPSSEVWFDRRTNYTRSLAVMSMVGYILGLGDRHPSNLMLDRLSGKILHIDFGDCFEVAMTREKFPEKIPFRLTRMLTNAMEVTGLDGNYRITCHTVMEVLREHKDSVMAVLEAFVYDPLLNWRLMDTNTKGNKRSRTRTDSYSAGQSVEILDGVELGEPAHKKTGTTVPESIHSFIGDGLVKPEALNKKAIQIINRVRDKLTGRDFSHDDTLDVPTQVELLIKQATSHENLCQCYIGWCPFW
Description: 1. mTOR Kinase Activity Assay: The inhibition of the mTOR protein kinase activity by the compounds was determined by the enzymatic activity assay in vitro. The detection kit supplied by Invitrogen was used to detect the inhibition of the activity of the mTOR […]. The principle of the assay was as follows: mTOR kinase, fluorescein-labeled substrate and ATP were mixed, and after the reaction, EDTA and terbium-labeled first antibody were added. During the chemical reaction process of the mTOR kinase, the antibody recognized the phosphorylated and fluorescein-labeled substrate, and then the “time-resolved fluorescence resonance energy transfer” (TR-FRET) effect was enhanced. TR-FRET effect was calculated as the ratio of signals from the acceptor fluorescein to signals from the donor terbium. The amount of the antibody bound to the tracer was directly proportional to the amount of the phosphorylated substrate after the reaction. In this way, the kinase activity can be detected. In this assay, the substrate of the mTOR kinase was green fluorescent protein-coupled 4E binding protein 1 (GFP-4EBP1).
1.1 Materials and Instruments:
4-Hydroxyethylpiperazine ethanesulfonic acid (HEPES, Sigma, Cat# SH3375), ethylene glycol-bis-(2-aminoethylether)-tetraacetic acid (EGTA, Sigma, Cat# E3889), manganese chloride (MnCl2, Sigma, Cat# M1787), Tween-20 (Tween-20, Amresco), 1,4-dithiothreitol (DTT, Merck, CB233155),

SK-BR3/BT474 = test: CTG cell survival assay, SK-BR3/BT474; format: cell-based; conditions: SK-BR3/BT474 cells
Method in brief: as §1

MV-4-11 = test: CTG cell survival assay, MV-4-11; format: cell-based; conditions: Homo sapiens, MV4-11, MV-4-11 cells
Method in brief: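 Cells grown in RPMI 1640 with 10% FBS were plated and cultured 24 h at 37 °C, 5% CO2, then treated with compound diluted from 10 mM DMSO stocks. Viable cells were quantified as ATP by CellTiter-Glo luminescence.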

[1] = Solubility test in common aqueous vehicles; format: physicochemical; conditions: 25° C., pH = 3
[2] = target: PI3K-alpha (PIK3CA/PIK3R1) (Homo sapiens (Human), UniProt P42336); test: PI3K-alpha enzyme activity assay (ADP Glo); format: biochemical; conditions: read-out: Activity of inhibiting PI3K enzyme IC50
Sequence of PI3K-alpha (PIK3CA/PIK3R1) (P42336 whole entry, looked up): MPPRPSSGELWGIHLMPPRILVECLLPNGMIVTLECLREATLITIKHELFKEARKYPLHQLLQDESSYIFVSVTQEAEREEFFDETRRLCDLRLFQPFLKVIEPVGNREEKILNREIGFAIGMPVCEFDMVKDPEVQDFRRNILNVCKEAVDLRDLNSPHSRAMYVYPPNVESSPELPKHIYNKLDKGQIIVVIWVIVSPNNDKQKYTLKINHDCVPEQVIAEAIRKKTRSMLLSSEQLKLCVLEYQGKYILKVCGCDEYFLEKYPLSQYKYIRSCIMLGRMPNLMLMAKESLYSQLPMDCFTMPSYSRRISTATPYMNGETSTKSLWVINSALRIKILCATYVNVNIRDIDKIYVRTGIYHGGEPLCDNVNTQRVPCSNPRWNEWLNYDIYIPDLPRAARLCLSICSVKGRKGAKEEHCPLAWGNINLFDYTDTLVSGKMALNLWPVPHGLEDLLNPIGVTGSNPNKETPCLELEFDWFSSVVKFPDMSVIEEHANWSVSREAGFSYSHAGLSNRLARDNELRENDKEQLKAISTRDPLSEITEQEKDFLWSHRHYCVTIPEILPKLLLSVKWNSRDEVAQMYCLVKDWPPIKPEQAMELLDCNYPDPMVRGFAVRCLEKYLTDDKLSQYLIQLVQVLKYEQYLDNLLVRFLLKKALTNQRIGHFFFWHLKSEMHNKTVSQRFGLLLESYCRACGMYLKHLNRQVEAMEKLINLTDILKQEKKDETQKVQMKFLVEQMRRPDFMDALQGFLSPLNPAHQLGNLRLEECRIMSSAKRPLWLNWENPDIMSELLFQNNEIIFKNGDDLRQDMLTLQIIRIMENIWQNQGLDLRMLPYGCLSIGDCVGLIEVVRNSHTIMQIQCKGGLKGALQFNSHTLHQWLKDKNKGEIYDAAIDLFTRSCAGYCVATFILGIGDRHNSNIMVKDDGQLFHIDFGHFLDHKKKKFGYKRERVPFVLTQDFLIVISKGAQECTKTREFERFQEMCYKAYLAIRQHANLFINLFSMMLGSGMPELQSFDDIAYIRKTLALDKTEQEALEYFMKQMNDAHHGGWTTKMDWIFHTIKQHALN
Sequence of PI3K-alpha (PIK3CA/PIK3R1) (P27986 whole entry partner, looked up): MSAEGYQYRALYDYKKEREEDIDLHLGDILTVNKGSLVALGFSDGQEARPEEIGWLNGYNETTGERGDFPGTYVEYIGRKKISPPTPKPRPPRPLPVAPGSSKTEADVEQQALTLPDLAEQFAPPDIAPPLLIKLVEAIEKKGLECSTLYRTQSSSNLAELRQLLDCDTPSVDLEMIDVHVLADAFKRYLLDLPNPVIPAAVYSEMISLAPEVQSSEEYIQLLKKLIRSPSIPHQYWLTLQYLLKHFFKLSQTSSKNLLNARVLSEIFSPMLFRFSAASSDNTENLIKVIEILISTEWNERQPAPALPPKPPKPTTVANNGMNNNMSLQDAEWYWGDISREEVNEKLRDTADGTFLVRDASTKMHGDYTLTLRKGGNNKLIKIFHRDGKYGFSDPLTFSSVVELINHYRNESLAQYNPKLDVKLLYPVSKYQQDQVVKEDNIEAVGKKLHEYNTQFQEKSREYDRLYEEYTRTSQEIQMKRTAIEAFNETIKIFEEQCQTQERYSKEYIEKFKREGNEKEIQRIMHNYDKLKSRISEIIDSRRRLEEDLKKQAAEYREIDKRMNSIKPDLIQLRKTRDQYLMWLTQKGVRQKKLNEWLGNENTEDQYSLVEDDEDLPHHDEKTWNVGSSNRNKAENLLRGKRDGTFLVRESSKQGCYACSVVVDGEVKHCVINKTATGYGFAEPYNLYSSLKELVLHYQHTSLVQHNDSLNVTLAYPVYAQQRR
Description: 3. PI3K-alpha Enzyme Activity Assay: PI3K alpha-ADP Glo Assay was employed. In the determination of PI3K enzyme activity, the detection kit supplied by Promega (Promega, Cat #: V9101) was used to detect the inhibition effect of the compounds on the activity of PI3K enzyme. The adenosine diphosphate produced during the whole enzymic reactions was quantified. The resulting values were used to calculate the activity of PI3K (Table 1).
3.1 Detection reagents: PIK3CA/PIK3R1 purchased from Invitrogen (Cat #: PV4788): The active kinase was diluted with kinase diluent III; and mixed with bovine serum albumin (BSA) in a ratio of 1:4 (5×dilution). The final BSA concentration was 50 ng/ml; and the compositions of Kinase Detection Solution I were: 25 mM MOPS, pH7.2, 12.5 mM β-glycerophosphate, 25 mM magnesium chloride, 5 mM EGTA, and 2 mM EDTA. Before use, 0.25 mM DTT was added to Kinase Detection Solution I; 250 μM adenosine triphosphate (ATP) Detection solution: 0.55 mg of ATP was dissolved in 4 ml of Kinase Detection Solution I, subdivided in 200 μl/vial and stored at −20° C. Substrate: Phosphatidylinositol (4,5) bis-phosphate; this substrate was diluted with Kinase Detection Solution I to a concentration of 125 μM. Final concentrations were: 10 μM PIP2, 10 μM ATP, 1% DMSO, and 0.0005-10 μM compounds.
a) Experimental Procedure: • 3.2.1 50 μL of the compounds diluted with dimethyl sulfoxide (DMSO) at a concentration of 100 μM were added to the 384-well dilution plate. The compounds were diluted with dimethyl sulfo de (DMSO) in a ratio of 1:3 (10 dilution concentrations plus 1 zero concentration). • 3.2.2 5 μL of the diluted compounds were transferred to the corresponding 384-well black Proxi plate (containing 47.5 μL of detection solution/well), and shaked for several seconds. • 3.2.3 2 μL of 2.5×PI3K working solution was added to 384-well black Proxi plate. • 3.2.4 2 μL of the diluted compounds were added to the detection plate (3 wells for each concentration). • 3.2.5 The plate was incubated at room temperature for 2 h. • 3.2.6 5 μL of ADP Glo Reagent was added. • 3.2.7 The plate was incubated at room temperature for 40 minutes. • 3.2.8 10 μL of the kinase detection reagent was added. • 3.2.9 The plate was incubated at room temperature for 40 minutes. • 3.2.10 The activity was detected by using Envision Reader.
The inhibition of the mTOR […] activity by the compounds ranges in 0.5 to several hundreds nanomoles, see Table 1.

SMILES	EC50 (PC-3) [nM]	IC50 (mTOR kinase) [nM]	EC50 (SK-BR3/BT474) [nM]	EC50 (MV-4-11) [nM]	solubility ([1]; aqueous buffer, water) [µg/mL]	solubility ([1]; aqueous with cosolvent or surfactant or cyclodextrin, 30% hydroxypropyl-β-cyclodextrin) [µg/mL]	IC50 [2] [nM]
Cn1cc(-c2ccc(-c3ccc4ncc5c(c4c3)n(C3CCCN(C(=O)CO)C3)c(=O)n5C)cn2)cn1 (stereo not shown) [Example 1, 1-(1-(2-hydroxyacetyl)piperidin-3-yl)-3-methyl-8-(6-(1-methyl-1H-pyrazol-4-yl)pyridin-3-yl)-1H-imidazo[4,5-c]quinolin-2(3H)-one]	< 200	10 to 100	< 500	< 1000	> 1000	–	–
Cn1c(=O)n([C@H]2CC[C@@H](O)CC2)c2c3cc(-c4ccc(-c5ccccc5)nc4)ccc3ncc21 [Example 19, 1-((1s,4s)-4-hydroxycyclohexyl)-3-methyl-8-(6-phenylpyridin-3-yl)-1H-imidazo[4,5-c]quinolin-2(3H)-one]	< 50	< 10	< 100	< 200	–	> 1000	–
COc1ncc(-c2ccc3ncc4c(c3c2)n([C@H]2CC[C@H](O)CC2)c(=O)n4C)cc1C [Example 24, 1-((1r,4r)-4-hydroxycyclohexyl)-8-(6-methoxyl-5-methylpyridin-3-yl)-3-methyl-1H-imidazo[4,5-c]quinolin-2(3H)-one]	< 200	10 to 100	< 500	< 500	–	–	–
Cn1cc(-c2ccc(-c3ccc4ncc5c(c4c3)n([C@@H]3CCN(S(C)(=O)=O)C3)c(=O)n5C)cn2)cn1 [Example 27, (R)-3-methyl-8-(6-(1-methyl-1H-pyrazol-4-yl)pyridin-3-yl)-1-(1-(methanesulfonyl)pyrrolidin-3-yl)-1H-imidazo[4,5-c]quinolin-2(3H)-one]	–	100 to 1000	< 1000	–	–	–	< 10
Cn1cc(-c2ccc(-c3ccc4ncc5c(c4c3)n(C3CCCC(O)C3)c(=O)n5C)cn2)cn1 (stereo not shown) [Example 32, 1-(3-hydroxycyclohexyl)-3-methyl-8-(6-(1-methyl-1H-pyrazol-4-yl)pyridin-3-yl)-1H-imidazo[4,5-c]quinolin-2(3H)-one]	< 50	< 10	< 100	< 200	–	–	–
CCS(=O)(=O)N1CCC[C@@H](n2c(=O)n(C)c3cnc4ccc(-c5ccc(-c6cnn(C)c6)nc5)cc4c32)C1 [Example 52, (R)-1-(1-(ethylsulfonyl)piperidin-3-yl)-3-methyl-8-(6-(1-methyl-1H-pyrazol-4-yl)pyridin-3-yl)-1H-imidazo[4,5-c]quinolin-2(3H)-one]	< 30	–	50	< 30	> 1000	–	–
